Source: patent US20230150951A1, “2,5- OR 2,6-DISUBSTITUTED HYDROQUINONE DERIVATIVES WITH AT LEAST ONE CARBOXY, SULFO OR AMIDO GROUP USEFUL AS MEDICAMENTS” (OM PHARMA SA, priority 2020, published 2023)
Like-named read-outs stand apart in the source and are kept apart here.

Columns and labels:
Format in all cases: cell-based
Human neutrophils = test: Inhibition of ROS production in human neutrophils (isoluminol chemiluminescence); conditions: Homo sapiens, Neutrophil, fMLP+TNF-α stimulated PMN
Procedure, shortened: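 Neutrophils from healthy-donor buffy coats (3×10^6/ml in HBSS with Ca/Mg) pre-incubated 30 min at 37° C with compound (0.1–10 μM), primed with TNF-α 20 ng/ml for 10 min, then added to fibrinogen-coated wells. Isoluminol/HRP chemiluminescence recorded every 25 sec for 250 sec after fMLP (1 μM), background-subtracted.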

IL-9 = test: Cytokine release after LPS induction on human whole blood: IL-9
Description: (§1) Aim of this in vitro method is to assess compounds effects on release of a panel of cytokines from whole blood following lipopolysaccharide (LPS) induced inflammatory reaction. Whole blood was incubated with compounds for 1 h prior to LPS induction. Cytokine levels in blood were measured using a multiplex FACS-based panel.
(§2) IC50 values determined for the tested compounds expressed in microM [μM] and the values for the inhibition of cytokines were listed for each compound.
(§3) Effect on cytokines release after LPS induction was performed on the compounds dissolved in DMSO or H2O to reach 10-fold concentrated stock solutions and dissolved in culture media.
(§4) Test system: Whole blood was removed from a single donor (into lithium heparin coated tubes; BD Vacutainer; 367886) and diluted 1:5 with RPMI 1640 (Thermo Fisher, 61870036). Within 30 minutes of sampling, blood was incubated with compounds for 1 h prior to LPS stimulation (O111:B4—Sigma L4391; 10 ng/ml final concentration). Stimulation continued under standard cell culture conditions (37° C. with 5% CO2) overnight (18 h), after which plates were centrifuged and supernatant removed and frozen at −80° C. until used for analyses.
(§5) Dilution of test compounds: 10×concentrated solutions (concerning to the final assay concentrations) of each test compound were prepared with the appropriate solvent (in DMSO or in water). These 10× compound solutions (10 μl) were then added to 90 μl pre-diluted whole blood (whole blood: RPMI1640, 1:5) resulting in the final assay concentration.
(§6) Test method: Diluted whole blood (80 μl) was pre-incubated with compounds (10 μl) to give final assay concentrations of 100, 30, 10, 3, 1, 0.3 and 0.1×10^−6M. Blood was incubated at 37° C. with 5% CO2 for 1 h. LPS was diluted in cell culture media to a concentration of […]; 10 μl was added to the whole blood to give a final concentration of 10 ng/ml. Plates were incubated at 37° C. for 18 h. Plates were centrifuged at 3,000 RPM for 5 minutes at 4° C. and supernatant removed and frozen at −80° C. until FACS analysis was carried out.
(§7) Cytokine release was measured using a custom multiplex system (ELISA Genie) according to manufacturers instructions. Prepared samples were run on an Attune NxT flow cytometer (Thermo Fisher).
(§8) Quantification of cytokine release inhibition: known concentration standards were run as part of the cytokine panel to allow quantification of each cytokine concentration in each sample. This was carried out using FCAP Array v3.0 software.
(§9) Results: The dose response relationship on cytokine release following LPS induction of inflammatory response in whole blood was assessed for all compounds. IC50 values were determined for each compound for a panel of cytokines (GM-CSF, IFN-gamma, IL-1beta, IL-2, IL-4, IL-5, IL-6, IL-8, IL-9, IL-10, IL-12p40, IL-13, IL-17A, IL-17F, IL-18, IL-21, IL-22, IL-33, TGF-beta, TNF-alpha, TNF-beta).

IL-1beta = test: Cytokine release after LPS induction on human whole blood: IL-1β
Description: as §1, §2, §3, §4, §5, §6, §7, §8, §9

IL-10 = test: Cytokine release after LPS induction on human whole blood: IL-10
Description: as §1, §2, §3, §4, §5, §6, §7, §8, §9

IFN-gamma = test: Cytokine release after LPS induction on human whole blood: IFNγ
Description: as §1, §2, §3, §4, §5, §6, §7, §8, §9

[1] = Homo sapiens, LPS 10 ng/ml, 18 h, read-out: Whole Blood: IL-9 IC50
[2] = human whole blood, inhibition of LPS induced inflammation, read-out: IC50 IL-9
[3] = Homo sapiens, LPS 10 ng/ml, 18 h, read-out: Whole Blood: IL-1β IC50
[4] = human whole blood, inhibition of LPS induced inflammation, read-out: IC50 IL-1b
[5] = Homo sapiens, LPS 10 ng/ml, 18 h, read-out: Whole Blood: IL-10 IC50
[6] = human whole blood, inhibition of LPS induced inflammation, read-out: IC50 IL-10
[7] = Homo sapiens, LPS 10 ng/ml, 18 h, read-out: Whole Blood: IFNγ IC50
[8] = human whole blood, inhibition of LPS induced inflammation, read-out: IC50 IFNγ

SMILES	inhibition at 0.3 µM (Human neutrophils) [%]	IC50 (Human neutrophils) [nM]	IC50 (IL-9; [1]) [µM]	IC50 (IL-9; [2]) [µM]	IC50 (IL-1beta; [3]) [µM]	IC50 (IL-1beta; [4]) [µM]	IC50 (IL-10; [5]) [µM]	IC50 (IL-10; [6]) [µM]	IC50 (IFN-gamma; [7]) [nM]	IC50 (IFN-gamma; [8]) [nM]
O=C(O)c1cc(NC(=O)c2cc(O)c(C(=O)Nc3ccc(O)c(C(=O)O)c3)cc2O)ccc1O [Ic-007a, 5-(4-(3-carboxy-4-hydroxyphenylaminocarbonyl)-2,5-dihydroxybenzamido)-2-hydroxy benzoic acid]	58	2700	27.1	27.1	> 100	100	12.5	12.5	1440	1440
O=C(O)c1cc(O)ccc1NC(=O)c1cc(O)cc(C(=O)Nc2ccc(O)cc2C(=O)O)c1O [IIc-009a, 2-(3-(2-carboxy-4-hydroxyphenylaminocarbonyl)-2,5-dihydroxybenzamido)-5-hydroxyl benzoic acid]	75.3		18.9	18.9	> 100	100	11.3	11.3	540	540
O=C(O)c1cc(NC(=O)c2cc(O)cc(C(=O)Nc3ccc(O)c(C(=O)O)c3)c2O)ccc1O [IIc-007a, 5-(3-(3-carboxy-4-hydroxyphenylaminocarbonyl)-2,5-dihydroxybenzamido)-2-hydroxy benzoic acid]	93		2.14	2.14	> 100	100	17.9	17.9	110	110
O=C(O)c1ccccc1CNC(=O)c1cc(O)cc(C(=O)O)c1O [IIa-053a, 3-(2-Carboxyphenylmethylaminocarbonyl)-2,5-dihydroxybenzoic acid]	63.1	620	1.41	1.41	> 100	100	> 100	100	1040	1040
